The values below come from patent US5124325A, “Therapeutic agents of metabolic bone disease” (Kyorin Pharmaceutical Co., Ltd., priority 1989, dated 1992).

In one assay the test system is bone resorption. As to the kind of experiment: Inhibition of bone resorption (45Ca release from prelabeled rat embryonic limb bones stimulated with IL-1β). Particulars: 25 μg/ml, 45Ca prelabeled rat embryonic limb bone, 72 hours culture. It counts as cell-based, rat (SD). The procedure: ^45 Ca prelabeled rat embryonic limbs for the measurement of bone resorption were prepared by the method of Raisz (J. Clin. Invest. 44, 103 (1965)). Briefly, 17th day pregnant SD rats were injected subcutaneously with 200 μCi of calcium-45 as calcium chloride. Two days later, the rats were killed, the embryos removed and washed with sterilized phosphated buffer solution (PBS). The forelimbs were dissected free of muscle and the cartilagious ends were cut off. The bone shaft was cultured with BGJb medium containing 20% bovine serum albumin (BSA).
The effect of each example compound of this invention on bone resorption was assessed by the method of Tsuda et al (J. Bone & Mineral Res. 1, 207 (1986)) with slight modification. Briefly, the trimmed bone was precultured for 24 hours at 37 ° C. and in an atmosphere of 5% CO2 in air on a millipore filter immersed in 0.6 ml of BGJb medium containing 20% BSA. 24-well plate was used for culture. The bone on the filter was then transferred to a new well filled with the medium containing the compounds of this invention with or without […] and cultured for 72 hours. 0.3 ml of the supernatant was collected and used to determine the ^45 Ca release from the bone. The bone was immersed in 0.3 ml of 1 N HCl for not less than 90 minutes, and 10 ml of ACS II scintillator was added so as to measure the radioactivity in a liquid scintillation counter. The activity of bone resorption was expressed as percent of ^45 Ca release to supernatant from labeled bone (sum of the radioactivity of the bone and the medium). One bone was cultured on one well and each experimental group consisted of 5 or 6 bones derived from fetus in one pregnant rat. The activity of bone resorption was determined by the formula.
U: ^45 Ca release without adding IL-1β
C: ^45 Ca release by adding IL-1β
T: ^45 Ca release by adding IL-1β and example compound
`O=C(O)c1cc([N+](=O)[O-])cc2c1NCCC2` [Compound 3]: the inhibition (in general, the change of the read-out against control, counted positive when it falls) at 25 µg/mL worked out at 100%.

Regarding `O=C(O)c1cccc2c1NCC(c1ccccc1)C2` (stereo not shown) [Compound 5], the inhibition at 25 µg/mL worked out at 103%.

Regarding `CC(C)Oc1ccc2c(=O)c(-c3ccccc3)coc2c1` [Ipriflavone, 7-isopropoxyisoflavone, reference compound], the inhibition at 25 µg/mL came to 58%.

As for `O=C(O)c1cccc2c1NC(c1ccc(O)cc1)CC2` (stereo not shown) [Compound 6], the inhibition at 25 µg/mL turned out to be 70%.

As for `CC(C)Oc1ccc(C2CCc3cccc(C(=O)O)c3N2)cc1` (stereo not shown) [Compound 8, 2-(4-Isopropoxyphenyl)-1,2,3,4-tetrahydroquinoline-8-carboxylic acid], the inhibition at 25 µg/mL is 92%.

Turning to `Cc1ccc(S(=O)(=O)Nc2cc3c(c(C(=O)O)c2)NC(c2ccccc2)CC3)cc1` (stereo not shown) [Compound 7, 2-Phenyl-6-p-toluenesulfonylamino-1,2,3,4-tetrahydroquinoline-8-carboxylic acid], the inhibition at 25 µg/mL was found to be 80%.

Consider `O=C(O)c1cc(Cl)cc2c1NC(c1ccccc1)CC2` (stereo not shown) [Compound 1, 6-Chloro-2-phenyl-1,2,3,4-tetrahydroquinoline-8-carboxylic acid], for which the inhibition at 25 µg/mL came out at 74%.

On to `O=C(O)c1cccc2c1NC(c1ccccc1)CC2` (stereo not shown) [Compound 2], for which the inhibition at 25 µg/mL was 113%.

As to `O=C(O)c1cc(Cl)cc2c1NCCC2` [Compound 4], the inhibition at 25 µg/mL is 76%.

In the next assay the test system is bone resorption.
Assay: not given
Particulars: It has been reported; cited from earlier work.
With `CC(C)Oc1ccc2c(=O)c(-c3ccccc3)coc2c1` [Ipriflavone, 7-isopropoxyisoflavone, reference compound], the “inhibitory effect on bone resorption (in words)” value is “have inhibitory effect on bone resorption”.
